Assay: xn = mol fraction of the nth substance listed
Conditions: for electrical conductivity: 101 kPa; for viscosity: 100 kPa

CCCCCCCCCCCCOS(=O)(=O)[O-].[Na+] + O
Conditions | electrical conductivity [S/m] | viscosity [mPa·s]
283.1 K, x1 = 6.483e-05 | 0.01714 | –
283.1 K, x1 = 6.941e-05 | 0.01821 | –
283.1 K, x1 = 7.476e-05 | 0.01971 | –
283.1 K, x1 = 8.126e-05 | 0.02131 | –
283.1 K, x1 = 8.852e-05 | 0.02313 | –
283.1 K, x1 = 9.769e-05 | 0.02537 | –
283.1 K, x1 = 0.0001027 | 0.02665 | –
283.1 K, x1 = 0.0001088 | 0.02815 | –
283.1 K, x1 = 0.0001153 | 0.02986 | –
283.1 K, x1 = 0.0001225 | 0.03168 | –
283.1 K, x1 = 0.000131 | 0.03381 | –
283.1 K, x1 = 0.0001413 | 0.03617 | –
283.1 K, x1 = 0.0001516 | 0.03884 | –
283.1 K, x1 = 0.0001654 | 0.04066 | –
283.1 K, x1 = 0.0001807 | 0.04228 | –
283.1 K, x1 = 0.0001998 | 0.044 | –
283.1 K, x1 = 0.0002228 | 0.04584 | –
283.1 K, x1 = 0.0002339 | 0.0467 | –
283.1 K, x1 = 0.0002461 | 0.04778 | –
283.1 K, x1 = 0.0002595 | 0.04865 | –
283.1 K, x1 = 0.0002745 | 0.04994 | –
283.1 K, x1 = 0.0002921 | 0.05135 | –
288.15 K, x1 = 6.595e-05 | 0.01969 | –
288.15 K, x1 = 7.09e-05 | 0.02119 | –
288.15 K, x1 = 7.663e-05 | 0.02279 | –
288.15 K, x1 = 8.276e-05 | 0.0245 | –
288.15 K, x1 = 9e-05 | 0.02696 | –
288.15 K, x1 = 9.917e-05 | 0.02952 | –
288.15 K, x1 = 0.0001045 | 0.03102 | –
288.15 K, x1 = 0.0001107 | 0.03273 | –
288.15 K, x1 = 0.0001168 | 0.03465 | –
288.15 K, x1 = 0.0001244 | 0.03679 | –
288.15 K, x1 = 0.0001328 | 0.03924 | –
288.15 K, x1 = 0.0001424 | 0.04191 | –
288.15 K, x1 = 0.0001538 | 0.04459 | –
288.15 K, x1 = 0.0001668 | 0.0463 | –
288.15 K, x1 = 0.0001829 | 0.04792 | –
288.15 K, x1 = 0.0002013 | 0.04975 | –
288.15 K, x1 = 0.0002246 | 0.05212 | –
288.15 K, x1 = 0.0002357 | 0.05319 | –
288.15 K, x1 = 0.0002468 | 0.05427 | –
288.15 K, x1 = 0.0002602 | 0.05567 | –
288.15 K, x1 = 0.0002748 | 0.05707 | –
288.15 K, x1 = 0.0002912 | 0.05868 | –
293.15 K, x1 = 1.802e-05 | – | 0.968
293.15 K, x1 = 3.604e-05 | – | 0.97
293.15 K, x1 = 5.406e-05 | – | 0.971
293.15 K, x1 = 6.553e-05 | 0.02214 | –
293.15 K, x1 = 6.973e-05 | 0.02364 | –
293.15 K, x1 = 7.207e-05 | – | 0.974
293.15 K, x1 = 7.508e-05 | 0.02545 | –
293.15 K, x1 = 8.157e-05 | 0.02759 | –
293.15 K, x1 = 8.883e-05 | 0.03004 | –
293.15 K, x1 = 9.009e-05 | – | 0.978
293.15 K, x1 = 9.76e-05 | 0.03303 | –
293.15 K, x1 = 0.000103 | 0.03463 | –
293.15 K, x1 = 0.0001081 | – | 0.981
293.15 K, x1 = 0.0001091 | 0.03666 | –
293.15 K, x1 = 0.0001152 | 0.03858 | –
293.15 K, x1 = 0.0001228 | 0.04104 | –
293.15 K, x1 = 0.0001261 | – | 0.984
293.15 K, x1 = 0.0001312 | 0.04371 | –
293.15 K, x1 = 0.0001408 | 0.0468 | –
293.15 K, x1 = 0.0001441 | – | 0.986
293.15 K, x1 = 0.0001522 | 0.04969 | –
293.15 K, x1 = 0.0001622 | – | 0.988
293.15 K, x1 = 0.0001649 | 0.05162 | –
293.15 K, x1 = 0.0001802 | – | 0.989
293.15 K, x1 = 0.0001805 | 0.05366 | –
293.15 K, x1 = 0.0001982 | – | 0.992
293.15 K, x1 = 0.0001989 | 0.05581 | –
293.15 K, x1 = 0.0002162 | – | 0.993
293.15 K, x1 = 0.0002219 | 0.0586 | –
293.15 K, x1 = 0.0002326 | 0.05979 | –
293.15 K, x1 = 0.0002342 | – | 0.993
293.15 K, x1 = 0.0002441 | 0.06118 | –
293.15 K, x1 = 0.0002522 | – | 0.995
293.15 K, x1 = 0.0002575 | 0.06269 | –
293.15 K, x1 = 0.0002702 | – | 0.996
293.15 K, x1 = 0.000272 | 0.06419 | –
293.15 K, x1 = 0.0002889 | 0.06613 | –
298.15 K, x1 = 1.802e-05 | – | 0.853
298.15 K, x1 = 3.604e-05 | – | 0.854
298.15 K, x1 = 5.406e-05 | – | 0.855
298.15 K, x1 = 7.207e-05 | – | 0.856
298.15 K, x1 = 9.009e-05 | – | 0.857
298.15 K, x1 = 0.0001081 | – | 0.857
298.15 K, x1 = 0.0001261 | – | 0.858
298.15 K, x1 = 0.0001441 | – | 0.86
298.15 K, x1 = 0.0001622 | – | 0.862
298.15 K, x1 = 0.0001802 | – | 0.863
298.15 K, x1 = 0.0001982 | – | 0.864
298.15 K, x1 = 0.0002162 | – | 0.865
298.15 K, x1 = 0.0002342 | – | 0.866
298.15 K, x1 = 0.0002522 | – | 0.866
